Values belong to the molecule of their own block, whether it stands above or below them. The source made the active and inactive calls. The calls are words filed in the database; no cut-off is given here. Where a SMILES comes first, the peptide text is derived from it.
What was measured:
[1] = target: T1, B-cell lymphoma 6 protein (Homo sapiens, UniProt P41182); experiment: Binding affinity to recombinant N-terminal GST-tagged/RED-NHS labelled wild-type BCL6 BTB domain (5 to 129 residues) (unknown origin) expressed in Escherichia coli Rosetta BL21 (DE3) at 1 mM incubated for 30 mins under dark condition in by single-point microscale thermophoresis method
[2] = target: T1, B-cell lymphoma 6 protein; experiment: Binding affinity to recombinant N-terminal GST-tagged/RED-NHS labelled wild-type BCL6 BTB domain (5 to 129 residues) (unknown origin) expressed in Escherichia coli Rosetta BL21 (DE3) incubated for 30 mins under dark condition by microscale thermophoresis method; conditions: read-out: Kd(app)
[3] = target: B-cell lymphoma 6 protein (Homo sapiens, UniProt P41182, C67R/C84N/C8Q); experiment: (§1) Binding affinity to recombinant RED-NHS labelled BCL6 BTB domain (unknown origin) C8Q/C67R/C84N triple mutant expressed in Escherichia coli Rosetta BL21 (DE3) incubated for 30 mins under dark condition by microscale thermophoresis method; conditions: read-out: Kd(app)
[4] = target: T1, B-cell lymphoma 6 protein; experiment: Stabilization of recombinant N-terminal GST-tagged wild-type BCL6 BTB domain (5 to 129 residues) (unknown origin) expressed in Escherichia coli Rosetta BL21 (DE3) assessed as change in melting temperature measured every 30 secs by SYPRO orange dye based thermal shift assay
[5] = system: B-cell lymphoma 6 protein (Homo sapiens), P41182 [C8Q,C67R,C84N]; experiment: Stabilization of recombinant BCL6 BTB domain (unknown origin) C8Q/C67R/C84N triple mutant expressed in Escherichia coli Rosetta BL21 (DE3) assessed as change in melting temperature measured every 30 secs by SYPRO orange dye based thermal shift assay
[6] = target: T1, B-cell lymphoma 6 protein; experiment: Binding affinity to recombinant N-terminal GST-tagged/RED-NHS labelled wild-type BCL6 BTB domain (5 to 129 residues) (unknown origin) expressed in Escherichia coli Rosetta BL21 (DE3) incubated for 30 mins under dark condition in presence of DTT by microscale thermophoresis method
[7] = system: B-cell lymphoma 6 protein (Homo sapiens), P41182 [C8Q,C67R,C84N]; experiment: Binding affinity to recombinant RED-NHS labelled BCL6 BTB domain (unknown origin) C8Q/C67R/C84N triple mutant expressed in Escherichia coli Rosetta BL21 (DE3) incubated for 30 mins under dark condition in presence of DTT by microscale thermophoresis method
[8] = system: B-cell lymphoma 6 protein (Homo sapiens), P41182 [C8Q,C67R,C84N]; experiment: as §1, with “(DE3) assessed as decrease in SMRT2 peptide binding” for “(DE3)”, “method relative to control” for “method”
[9] = system: B-cell lymphoma 6 protein (Homo sapiens), P41182 [C8Q,C67R,C84N]; experiment: Inhibition of recombinant BCL6 C8Q/C67R/C84N triple mutant BTB domain dimerization (unknown origin) expressed in Escherichia coli Rosetta BL21 (DE3) at 500 uM by size exclusion chromatographic method

Activity [1]: inactive
SMILES: CC[C@@H](C)[C@@H]1NC(=O)[C@H](C)NC(=O)[C@H](C(C)C)NC(=O)[C@H](CS)NC(=O)[C@H](Cc2ccc(O)cc2)NC(=O)[C@H](Cc2ccc(O)cc2)NC1=O

Kd [2]: 142 µM | Kd [3]: 50 µM | Activity [4]: Dose-dependent effect | Activity [5]: Dose-dependent effect | Activity [6]: inactive | Activity [7]: inactive | fold change (FC) [8]: 3 | Activity [1]: Active | inhibition [9]: Active
SMILES: CC[C@@H](C)[C@@H]1NC(=O)[C@H](CS)NC(=O)[C@H](C(C)C)NC(=O)[C@H](CS)NC(=O)[C@H](Cc2ccc(O)cc2)NC(=O)[C@H](Cc2ccc(O)cc2)NC1=O

Activity [1]: inactive
SMILES: CC[C@@H](C)[C@@H]1NC(=O)[C@H](CS)NC(=O)[C@H](C(C)C)NC(=O)[C@H](C)NC(=O)[C@H](Cc2ccc(O)cc2)NC(=O)[C@H](Cc2ccc(O)cc2)NC1=O

Activity [1]: Active
SMILES: CC[C@@H](C)[C@@H]1NC(=O)[C@H](CS)NC(=O)[C@H](C)NC(=O)[C@H](CS)NC(=O)[C@H](Cc2ccc(O)cc2)NC(=O)[C@H](Cc2ccc(O)cc2)NC1=O

Activity [1]: inactive
SMILES: CC[C@@H](C)[C@@H]1NC(=O)[C@H](CS)NC(=O)[C@H](C(C)C)NC(=O)[C@H](CS)NC(=O)[C@H](C)NC(=O)[C@H](Cc2ccc(O)cc2)NC1=O

Activity [1]: Active
SMILES: CC[C@@H](C)[C@@H]1NC(=O)[C@H](CS)NC(=O)[C@H](C(C)C)NC(=O)[C@H](CS)NC(=O)[C@H](Cc2ccc(O)cc2)NC(=O)[C@H](C)NC1=O

Activity [1]: Active
SMILES: CC(C)[C@@H]1NC(=O)[C@H](CS)NC(=O)[C@H](Cc2ccc(O)cc2)NC(=O)[C@H](Cc2ccc(O)cc2)NC(=O)[C@H](C)NC(=O)[C@H](CS)NC1=O (cyclo(AYYCVC))

— ChEMBL document CHEMBL4219159, “A genetically selected cyclic peptide inhibitor of BCL6 homodimerization” (Bioorg Med Chem, 2018)
